# Data reported in patent US20210059246A1, “METHOD FOR EFFECTIVELY CONTROLLING COCCOID INSECT PESTS” (Ecología y Protección Agrícola, S.L., priority 2017, published 2021).
# Where “and” joins values, the source holds several entries; their conditions need not be identical. Identical values can stand only once.
# Key:
# [1] = test system: Aonidiella aurantii males; assay: Field trap test: effective flow attracting A. aurantii males within the interlinked semiochemical matrix; format: in vivo; details: for EFFECTIVE FLOW: orange
# Procedure: Experiments for obtaining an effective flow to combat the diaspidid Aonidiella aurantii were carried out on citrus crops located in the province of Huelva in 2015 and 2016.
# For these assays, four plots of different varieties of citrus trees with surface areas comprised between 2 and 10 hectares were initially taken.
# An artificial semiochemical matrix 1 was generated therein by arranging 500 diffusers/ha, with a substantially constant initial emission flow-1 of 300 μg/diffuser/day (optimal flow according to the state of the art) of (3S,6RS)-3-methyl-6-isopropenyl-9-decen-1-yl acetate.
# In the interior of these artificial semiochemical matrices, two blocks of seven diffusers with different emission flows were installed in each assay. These blocks were separated by a distance of more than 80 meters therebetween and the diffusers were separated 25 meters intra-block. Each block included: • (a) a glued trap, without any kind of semiochemical emission; • (b) a glued trap, with a diffuser with a substantially constant emission flow of 25 μg/day of (3S,6RS)-3-methyl-6-isopropenyl-9-decen-1-yl acetate. • (c) a glued trap, with a diffuser with a substantially constant emission flow of 50 μg/day of (3S,6RS)-3-methyl-6-isopropenyl-9-decen-1-yl acetate. • (d) a glued trap, with a diffuser with a substantially constant emission flow of 100 μg/day of (3S,6RS)-3-methyl-6-isopropenyl-9-decen-1-yl acetate. • (e) a glued trap with a diffuser with a substantially constant emission flow of 200 μg/day of (3S,6RS)-3-methyl-6-isopropenyl-9-decen-1-yl acetate. • (f) a glued trap with a diffuser with a substantially constant emission flow of 300 μg/day of (3S,6RS)-3-methyl-6-isopropenyl-9-decen-1-yl acetate (initial flow-1). • (g) a glued trap with a diffuser with a substantially constant emission flow of 400 μg/day of (3S,6RS)-3-methyl-6-isopropenyl-9-decen-1-yl acetate.
# All the traps were placed in the trees at a height of 1.5 m. The traps used were of the 9.5×15 cm white sticky sheet type. Diffusers with a substantially constant emission flow were fixed to the center of the sticky sheet. Replacement of the sheets, intra-block rotation of the traps and reading of the male captures was performed on a weekly basis. Upon completing the first rotation of the traps, it was observed that those whose emission corresponded to the flow of […] had the highest number of captured males and not the traps with an initial flow-1 of 300 μg/diffuser/day (FIG. 1).
# Subsequently, a new iteration for obtaining the effective flow-2 within the new interlinked matrix was initiated, to which end the previous diffusers were withdrawn and a new artificial semiochemical matrix-2 was generated through the installation of 500 diffusers/ha, with a substantially constant initial emission flow-2 equal to 25 μg/day (effective flow-1) of (3S,6RS)-3-methyl-6-isopropenyl-9-decen-1-yl acetate.
# Two blocks of seven diffusers were installed in the interior of this new interlinked semiochemical matrix in each assay. These blocks were separated by a distance of more than 80 meters therebetween and the diffusers were separated 25 meters intra-block. […]
# [2] = test system: Aonidiella aurantii; assay: Field control of A. aurantii in citrus crops, percentage of damaged fruit; format: in vivo; details: 15.00 μg/diffuser/day
# Procedure: With the final effective flow value (15 μg/diffuser/day), the assays for ascertaining the effective flow rate resulting from the combinations of the final effective flow of 15 μg/diffuser/day with an effective number of devices of 500 diffusers/ha, 380 diffusers/ha, 250 diffusers/ha, 100 diffusers/ha and 50 diffusers/ha continued in 2017, in addition to the result of chemical controls carried out using the products currently authorized to combat this pest. The effectiveness of the treatments was evaluated in accordance with the percentage of damaged fruit by means of sampling prior to picking the fruit. In order to determine said percentage, the number of shields of A. aurantii females per fruit was counted using the following protocol: 20 trees were selected per hectare and 10 fruits were taken from each tree: 8 from the exterior (from all the orientations and randomly) and 2 from the interior (randomly). A fruit with more than 10 shields was considered damaged. In the case of the treatment based on chemical control, a surface area equivalent to the other treatments was evaluated.
# [3] = test system: Aonidiella aurantii males; details: within natural semiochemical matrix; Vacas et al. 2017; cited from earlier work
# [4] = test system: Aonidiella aurantii; assay: Field control of A. aurantii in citrus crops, percentage of damaged fruit; format: in vivo; details: for EFFECTIVE CONTROL [% DAMAGE]: orange
# [5] = test system: Planococcus ficus males; assay: Field trap test: effective flow attracting P. ficus males within the interlinked semiochemical matrix; format: in vivo; details: for EFFECTIVE FLOW: table grapes
# Procedure: The response of the males of the species P. ficus, at different emission flows of senecioate S-lavandulyl, was evaluated in various field tests carried out on table grape crops located in the Municipal District of […] de Murcia and Totana, both municipalities in the Region of Murcia in 2015, 2016 and 2017. For these assays, four plots of different varieties of table grapes with surface areas comprised between 1 and 4 hectares were initially taken. An artificial semiochemical matrix-1 was generated therein through the installation of 1,000 diffusers/ha, with a substantially constant emission flow of 300 μg/day of S-lavandulyl senecioate (initial flow-1). The choice of this initial emission flow is based on the average emission of commercial diffusers for controlling this pest. In the interior of these artificial semiochemical matrices, two blocks of six diffusers with different emission flows were installed in each assay. These blocks were separated by a distance of more than 80 meters therebetween and the diffusers were separated 25 meters intra-block. Each block included: • (a) a glued trap, without any kind of semiochemical emission. • (b) a glued trap, with a substantially constant emission flow of 10 μg/day of S-lavandulyl senecioate. • (c) a glued trap, with a diffuser with a substantially constant emission flow of 50 μg/day of S-lavandulyl senecioate. • (d) a glued trap, with a diffuser with a substantially constant emission flow of 100 μg/day of S-lavandulyl senecioate. • (e) a glued trap with a diffuser with a substantially constant emission flow of 200 μg/day of S-lavandulyl senecioate. • (f) a glued trap with a diffuser with a substantially constant emission flow of 300 μg/day of S-lavandulyl senecioate (initial flow-1). All the traps were placed in the trees at a height of 2 m. The traps used were of the 9.5×15 cm white sticky sheet type. Diffusers with a substantially constant emission flow were fixed to the center of the sticky sheet. Replacement of the sheets, intra-block rotation of the traps and reading of the male captures was performed on a weekly basis. Upon completing the first rotation of the traps it was observed that those whose emission corresponded to the emission flow of […] (effective flow-1) achieved the highest number of captures within the interlinked semiochemical matrix (FIG. 4). Next, a new iteration for obtaining the effective flow-2 within the new interlinked matrix was initiated, to which end the previous diffusers were withdrawn and a new artificial semiochemical matrix-2 was generated through the installation of 1,000 diffusers/ha, with a substantially constant emission flow of 10 μg/day (effective flow-1) of S-lavandulyl senecioate. Two blocks of six diffusers were installed in the interior of this new interlinked semiochemical matrix in each assay. These blocks were separated by a distance of more than 80 meters therebetween and the diffusers were separated 25 meters intra-block. Each block included: • (a) a glued trap, without any kind of semiochemical emission; • (b) a glued trap, with a diffuser with a substantially constant emission flow of 0.1 μg/day of S-lavandulyl senecioate. • (c) a glued trap, with a diffuser with a substantially constant emission flow of 5 μg/day of S-lavandulyl senecioate. • (d) a glued trap, with a diffuser with a substantially constant emission flow of 10 μg/day of S-lavandulyl senecioate. • (e) a glued trap with a diffuser with a substantially constant emission flow of 15 μg/day of S-lavandulyl senecioate. • (f) a glued trap with a diffuser with a substantially constant emission flow of 25 μg/day of S-lavandulyl senecioate. • (g) a glued trap with a diffuser with a substantially constant emission flow of 50 μg/day of S-lavandulyl senecioate. All the traps were placed in the trees at a height of 2 m. The traps used were of the 9.5×15 cm white sticky sheet type. The diffusers with a substantially constant emission flow were fixed to the center of the sticky sheet. […]
# [6] = test system: Planococcus ficus; assay: Field control of P. ficus in table grape crops, percentage of bunches with presence of pest, molasses or fumigines; format: in vivo; details: table grapes
# Procedure: With the final definitive effective flow value (5-10 μg/diffuser/day), the assays for ascertaining the effective flow rate resulting from the combinations of the final effective flow with an effective number of devices of 1,000 diffusers/ha, 500 diffusers/ha, 250 diffusers/ha and 100 diffusers/ha continued in 2016 and 2017. Since the plots where the assays were carried out were used for organic or environmentally friendly farming, it was not possible to establish a chemical control for comparing the results of the effective control of Planococcus ficus. The effectiveness of the treatments was assessed in accordance with the percentage of bunches with presence of Planococcus ficus, molasses or fumigines by sampling prior to picking the grapes. In order to determine said percentage, 20 vines per hectare were taken randomly and 20 bunches were inspected in each, of which the 10 bunches closest to the center of the vine and the 10 bunches farthest from the vine were chosen, covering the entire vine. Both bunches in contact with primary branches were taken and isolated without touching any other branch. A total of […].
smiles,measurement,setting,value
"C=CCCC(CC[C@H](C)CCOC(C)=O)C(=C)C (mixture of isomers) [(3S,6RS)-3-methyl-6-isopropenyl-9-decen-1-yl acetate]",EFFECTIVE FLOW,"[1]; 1st iteration, artificial semiochemical matrix 300.00 μg/diffuser/day, 500 diff/Ha, 2015 Rio Tinto-Huelva",25.00 μg/diffuser/day
same,EFFECTIVE FLOW,"[1]; 2nd iteration, artificial semiochemical matrix 25.00 μg/diffuser/day, 500 diff/Ha, 2016 Nerva Huelva",15.00 μg/diffuser/day
same,EFFECTIVE FLOW,"[1]; 3rd iteration, artificial semiochemical matrix 15.00 μg/diffuser/day, 380 diff/Ha, 2016 El Campillo-Huelva",15.00 μg/diffuser/day
same,emission flow with the highest number of captured males (effective flow-1),"[1]; first rotation, matrix-1 of 500 diffusers/ha at 300 μg/diffuser/day, FIG. 1",25 µg/diffuser/day
same,emission flow with higher number of captures (effective flow-2),"[1]; matrix-2 of 500 diffusers/ha at 25 μg/day, FIG. 2",15 µg/day
same,final effective flow,"[1]; third iteration, matrix of 500 diffusers/ha at 15 μg/day, FIG. 3",15 μg/diffuser/day
same,EFFECTIVE CONTROL [% DAMAGE],"[2]; 50 diff/Ha, 0.75 mg/Ha/day, 2017 Serra-Valencia, orange",3.30% and 4.00%
same,EFFECTIVE CONTROL [% DAMAGE],"[2]; 100 diff/Ha, 1.50 mg/Ha/day, 2017 Serra-Valencia, orange",5.10% and 3.80%
same,EFFECTIVE CONTROL [% DAMAGE],"[2]; 250 diff/Ha, 3.75 mg/Ha/day, 2017 Monserrat-Valencia, mandarine",4.20%
same,EFFECTIVE CONTROL [% DAMAGE],"[2]; 250 diff/Ha, 3.75 mg/Ha/day, 2017 Monserrat-Valencia, orange",3.00%
same,EFFECTIVE CONTROL [% DAMAGE],"[2]; 250 diff/Ha, 3.75 mg/Ha/day, 2017 Picasent-Valencia, mandarine",1.90%
same,optimal flow according to the state of the art,[3],300 μg/diffuser/day
same,effective flow rate value determined within the interlinked semiochemical matrix after successive iterations,[4]; 5 μg/day at 500 emission points per hectare,2.5 mg per hectare and day
same,EFFECTIVE CONTROL [% DAMAGE],"[4]; 15.00 μg/diffuser/day, 380 diff/Ha, 5.70 mg/Ha/day, 2016 El Campillo-Huelva",1.70% and 0.70% and 0.60%
same,flow rate corresponding to the optimal flow according to the state of the art,[4]; 300 μg/day at 500 emission points per hectare,150 mg per hectare and day
same,EFFECTIVE CONTROL [% DAMAGE],"[4]; matrix 25.00 μg/diffuser/day, 500 diff/Ha, 12.50 mg/Ha/day, 2016 Nerva Huelva",7.30% and 7.50% and 8.00%
C=C(C)[C@H](CC=C(C)C)COC(=O)C=C(C)C [S-lavandulyl senecioate],EFFECTIVE FLOW,"[5]; 1st iteration, artificial semiochemical matrix 300.00 μg/diffuser/day, 1,000 diff/Ha, 2015 Alhama de Murcia",10.00 μg/diffuser/day
same,EFFECTIVE FLOW,"[5]; 2nd iteration, artificial semiochemical matrix 10.00 μg/diffuser/day, 1,000 diff/Ha, 2016 Alhama de Murcia",10.00 μg/diffuser/day
same,EFFECTIVE FLOW,"[5]; 3rd iteration, artificial semiochemical matrix 5.00 μg/diffuser/day, 1,000 diff/Ha, 2017 Alhama de Murcia",5.00 μg/diffuser/day
same,EFFECTIVE FLOW,"[5]; 3rd iteration, artificial semiochemical matrix 10.00 μg/diffuser/day, 500 diff/Ha, 2016 Alhama de Murcia",10.00 μg/diffuser/day
same,final definitive effective flow value,[5]; after second iteration,5-10 μg/diffuser/day
same,emission flow with the highest number of captures (effective flow-1),"[5]; matrix-1 of 1,000 diffusers/ha at 300 μg/day, FIG. 4",10 µg/day
same,flows with the highest number of male captures,"[5]; matrix-2 of 1,000 diffusers/ha at 10 μg/day, FIG. 5",5 µg/day and 10 µg/day
same,EFFECTIVE CONTROL [% DAMAGE],"[6]; 5 μg/diffuser/day, 100 diff/Ha, 0.50 mg/Ha/day, 2017 Totana-Murcia",4.50%
same,EFFECTIVE CONTROL [% DAMAGE],"[6]; 5 μg/diffuser/day, 250 diff/Ha, 1.25 mg/Ha/day, 2017 Totana-Murcia",1.80%
same,EFFECTIVE CONTROL [% DAMAGE],"[6]; 5.00 μg/diffuser/day, 500 diff/Ha, 2.50 mg/Ha/day, 2017 Alhama de Murcia",0.80% and 1.40%
same,EFFECTIVE CONTROL [% DAMAGE],"[6]; 5.00 μg/diffuser/day, 1,000 diff/Ha, 5.00 mg/Ha/day, 2017 Alhama de Murcia",2.30% and 0.00%
same,EFFECTIVE CONTROL [% DAMAGE],"[6]; 10 μg/diffuser/day, 100 diff/Ha, 1.00 mg/Ha/day, 2017 Totana-Murcia",3.00%
same,EFFECTIVE CONTROL [% DAMAGE],"[6]; 10 μg/diffuser/day, 250 diff/Ha, 2.50 mg/Ha/day, 2017 Totana-Murcia",2.90%
same,EFFECTIVE CONTROL [% DAMAGE],"[6]; 10.00 μg/diffuser/day, 500 diff/Ha, 5.00 mg/Ha/day, 2016 Alhama de Murcia",0%
same,EFFECTIVE CONTROL [% DAMAGE],"[6]; 10.00 μg/diffuser/day, 1,000 diff/Ha, 10.00 mg/Ha/day, 2016 Alhama de Murcia",1.20% and 0.90% and 3.70%
